Measurements taken from patent US20230148450A9, “BICYCLIC HETEROARYL COMPOUNDS AND USES THEREOF” (Revolution Medicines, Inc., priority 2019, published 2023).

Tests used:
[1] = target: T1, SOS1 nucleotide exchange of KRAS (catalytic domain of SOS1, residues 564-1049; wild-type KRAS) (Homo sapiens, UniProt Q07889); experiment: Mode of Action Assay: Inhibition of SOS1 Nucleotide Exchange Activity (TR-FRET); type: biochemical; conditions: TR-FRET signal
T1 construct: tagless catalytic domain of SOS1 (residues 564-1049)
T1 sequence (Q07889 564-1049): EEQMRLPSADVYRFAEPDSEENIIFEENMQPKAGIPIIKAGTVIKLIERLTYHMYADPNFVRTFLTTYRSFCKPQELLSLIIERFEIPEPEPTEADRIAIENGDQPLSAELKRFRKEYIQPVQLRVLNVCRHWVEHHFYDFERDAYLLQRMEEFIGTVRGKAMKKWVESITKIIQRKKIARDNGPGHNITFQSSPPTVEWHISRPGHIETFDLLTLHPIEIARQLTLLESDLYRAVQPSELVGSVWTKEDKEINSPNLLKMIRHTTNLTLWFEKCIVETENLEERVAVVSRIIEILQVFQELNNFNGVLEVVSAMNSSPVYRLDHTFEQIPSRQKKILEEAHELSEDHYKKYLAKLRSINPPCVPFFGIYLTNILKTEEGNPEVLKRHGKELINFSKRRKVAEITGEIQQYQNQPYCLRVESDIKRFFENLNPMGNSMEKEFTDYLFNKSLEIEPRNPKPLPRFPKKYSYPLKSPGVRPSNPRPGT
Protocol: The purpose of this assay was to characterize the inhibitory activity of compounds on SOS1 nucleotide exchange of KRAS. Data was reported as IC50 values based on the TR-FRET signal.
Note—the following protocol describes a procedure for monitoring the inhibition of SOS1 nucleotide exchange activity of wild-type KRAS in response to a compound of the invention. Other KRAS mutants and RAS isoforms maybe employed.
In assay buffer containing 20 mM HEPES, pH 7.5, 150 mM NaCl, 5 mM MgCl2, 0.05% Tween-20, 0.1% BSA, 1 mM DTT, concentration series of test compounds were generated spanning 100 μM to 1.7 nM over eleven 3-fold serial dilutions in a 384-well assay plate at a volume of 20 μL. The purified tagless catalytic domain of SOS1 (residues 564-1049) was first diluted in assay buffer at a concentration of 100 nM, and then 20 μL of the SOS1 containing solution was directly dispensed into compound plates. The SOS1/compound mixture was incubated at room temperature with constant mixing on an orbital shaker for 20 minutes to allow the reaction to reach equilibrium. A KRAS mixture was prepared by diluting 66.7 nM avi-tagged KRAS (residue 1-169), 3.33 nM Streptavidin-Tb and 333 nM EDA-GTP-DY-647P1 in assay buffer. This mixture was prepared immediately before addition to the SOS1/compound mixture to prevent intrinsic nucleotide exchange. Then 5 μL of the pre-incubated SOS1/compound mixture and 7.5 μL of the KRAS mixture were added sequentially in a 384-well low volume black round bottom plate and incubated at room temperature with constant shaking for 30 minutes. Time-resolved fluorescence was measured on a PerkinElmer Envision plate reader. DMSO and 10 μM of compound (i) were used as negative and positive controls, respectively.
Three replicates were performed for each compound. Data were normalized by the following: (Positive control—Sample signal)/(Positive control—negative control)*100. The data were fit using a four-parameter logistic fit.

[2] = target: T2, SOS1 catalytic domain (residues 564-1049) (Homo sapiens, UniProt Q07889); experiment: Binding affinity to SOS1 using Surface Plasmon Resonance (SPR); conditions: avi-tagged SOS1 catalytic domain immobilized on sensor chip; read-out: SOS1 SPR Equilibrium Kd
T2 construct: SOS1 catalytic domain (residues 564-1049) immobilized on a sensor chip
T2 sequence (Q07889 564-1049): T1 sequence (Q07889 564-1049)
Source text: Potency Assay: Measurement of the Binding Affinity of Compounds of the Invention to SOS! using Surface Plasmon Resonance (SPR)
The purpose of the SPR assay was to measure the direct binding of compounds to SOS1 catalytic domain (residues 564-1049) immobilized on a sensor chip. Data was reported as equilibrium dissociation constant (Kd) values.
Using a GE Biacore 8K SPR instrument, avi-tagged SOS1 catalytic domain protein was immobilized to a level of approximately 6000 response units (RU) on a streptavidin-coated SPR sensor chip in assay buffer containing 0.01 M HEPES, 0.15 M NaCl and 0.05% v/v Surfactant P20. In assay buffer containing 2% DMSO, concentration series of test compounds were generated spanning 5 μM to 4.9 nM over ten 2-fold dilutions. For each test compound, a separate 0 μM sample was generated for use during subsequent double reference subtraction. Serially for each test compound, individual dilution samples were flowed over the immobilized SOS1 protein at a flow rate of 50 μL/minute to monitor the association with SOS1. Dissociation of bound test compound from the SOS1 protein was immediately monitored by flowing assay buffer over the sensor surface and monitoring the decrease in binding signal back to the baseline level seen in the absence of compound. This was repeated for all compound dilutions in each series. The binding level response for each test compound concentration was noted immediately prior to the end of the association phase, and a secondary plot generated showing binding response level versus test compound concentration generated for each compound dilution series.

CC(=O)N1CCN(c2cc3c(N[C@H](C)c4cc(N)cc(C(F)(F)F)c4)ncnn3c2)CC1 [Example 43, 1-[4-[4-[[(1R)-1-[3-amino-5-(trifluoromethyl)phenyl]ethyl]amino]pyrrolo[2,1-f][1,2,4]triazin-6-yl]piperazin-1-yl]ethanone]
IC50 [1]: > 1000 nM
Kd [2]: > 400 nM

C[C@@H](Nc1ccnc2cc(C3=CCNCC3)nn12)c1cc(N)cc(C(F)(F)F)c1 [Example 52, N-[(1R)-1-[3-amino-5-(trifluoromethyl)phenyl]ethyl]-2-(1,2,3,6-tetrahydropyridin-4-yl)pyrazolo[1,5-a]pyrimidin-7-amine]
IC50 [1]: > 1000 nM
Kd [2]: ≤ 400 nM

C[C@@H](Nc1ncnc2cn(CC3CCOC3)cc12)c1cc(N)cc(C(F)(F)F)c1 (stereo partly drawn) [Example 32, N-[(1R)-1-[3-amino-5-(trifluoromethyl)phenyl]ethyl]-6-(tetrahydrofuran-3-ylmethyl)pyrrolo[3,4-d]pyrimidin-4-amine]
Kd [2]: ≤ 400 nM

CC(=O)N1CCN(c2cc3c(N[C@H](C)c4cccc(C(F)(F)F)c4)ncnn3c2)CC1 [Example 45, 1-[4-[4-[[(1R)-1-[3-(trifluoromethyl)phenyl]ethyl]amino]pyrrolo[2,1-f][1,2,4]triazin-6-yl]piperazin-1-yl]ethenone]
IC50 [1]: > 1000 nM
Kd [2]: ≤ 400 nM

Cc1nc(N[C@H](C)c2cc(N)cc(C(F)(F)F)c2)c2cc(CN3CCOCC3)cn2n1 [Example 34, N-[(1R)-1-[3-amino-5-(trifluoromethyl)phenyl]ethyl]-2-methyl-6-(morpholinomethyl)pyrrolo[2,1-f][1,2,4]triazin-4-amine]
IC50 [1]: > 1000 nM
Kd [2]: > 400 nM

COc1ncccc1-c1cc2c(N[C@H](C)c3cc(N)cc(C(F)(F)F)c3)nc(C)nn2c1 [Example 64, N-[(1R)-1-[3-amino-5-(trifluoromethyl)phenyl]ethyl]-6-(2-methoxypyridin-3-yl)-2-methylpyrrolo[2,1-f][1,2,4]triazin-4-amine]
IC50 [1]: > 1000 nM
Kd [2]: > 400 nM

Cc1cn2nc(C(=O)N3CCN(C)CC3)cc2c(N[C@H](C)c2cc(N)cc(C(F)(F)F)c2)n1 [Example 59]
IC50 [1]: > 1000 nM
Kd [2]: ≤ 400 nM

COc1cc2c(N[C@H](C)c3cc(N)cc(C(F)(F)F)c3)ncnn2c1 [Example 44, N-[(1R)-1-[3-amino-5-(trifluoromethyl)phenyl]ethyl]-6-methoxy-pyrrolo[2,1-f][1,2,4]triazin-4-amine]
IC50 [1]: > 1000 nM
Kd [2]: > 400 nM

Cc1cn2nc(C(=O)N3CC(N4CCC4)C3)cc2c(N[C@H](C)c2cc(N)cc(C(F)(F)F)c2)n1 [Example 79]
IC50 [1]: > 1000 nM

C[C@@H](Nc1cccc2nc(C3=CCNCC3)nn12)c1cc(N)cc(C(F)(F)F)c1 [Example 55, N-[(1R)-1-[3-amino-5-(trifluoromethyl)phenyl]ethyl]-2-(1,2,3,6-tetrahydropyridin-4-yl)-[1,2,4]triazolo[1,5-a]pyridin-5-amine]
IC50 [1]: > 1000 nM

Cc1cn2nc(C(=O)N3CCNCC(F)(F)C3)cc2c(N[C@H](C)c2cc(N)cc(C(F)(F)F)c2)n1 [Example 77]
IC50 [1]: > 1000 nM

Cc1cn2nc(C(=O)N3CC4CC(C3)N4C)cc2c(N[C@H](C)c2cc(N)cc(C(F)(F)F)c2)n1 [Example 80]
IC50 [1]: > 1000 nM

C[C@@H](Nc1cc(C(F)(F)F)cn2nc(C3=CCNCC3)nc12)c1cc(N)cc(C(F)(F)F)c1 [Example 54, N-[(1R)-1-[3-amino-5-(trifluoromethyl)phenyl]ethyl]-2-(1,2,3,6-tetrahydropyridin-4-yl)-6-(trifluoromethyl)-[1,2,4]triazolo[1,5-a]pyridin-8-amine]
IC50 [1]: > 1000 nM

C[C@@H](Nc1ncnc2c1cc(C1=CCNCC1)n2C)c1cc(N)cc(C(F)(F)F)c1 [Example 67]
Kd [2]: ≤ 400 nM

Cc1nc(N[C@H](C)c2cc(N)cc(C(F)(F)F)c2)c2cc(C3=CCNCC3)sc2n1 [Example 46, N-[(1R)-1-[3-amino-5-(trifluoromethyl)phenyl]ethyl]-2-methyl-6-(1,2,3,6-tetrahydropyridin-4-yl)thieno[2,3-d]pyrimidin-4-amine]
IC50 [1]: > 1000 nM
